In assay [1] the target is T1, Type-2 angiotensin II receptor (Homo sapiens) (UniProt P50052).
T1 sequence (whole entry): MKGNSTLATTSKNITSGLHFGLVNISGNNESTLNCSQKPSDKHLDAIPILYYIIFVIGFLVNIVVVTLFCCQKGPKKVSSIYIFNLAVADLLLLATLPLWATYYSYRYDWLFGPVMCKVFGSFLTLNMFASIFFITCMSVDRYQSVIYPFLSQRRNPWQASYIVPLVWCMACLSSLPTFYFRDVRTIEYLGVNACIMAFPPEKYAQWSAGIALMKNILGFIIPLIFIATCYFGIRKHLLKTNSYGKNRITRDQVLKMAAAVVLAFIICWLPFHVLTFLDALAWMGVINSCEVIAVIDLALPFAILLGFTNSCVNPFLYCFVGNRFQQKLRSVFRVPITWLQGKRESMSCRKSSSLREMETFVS
Kind of assay: In vitro antagonist activity against the Angiotensin II (type 2) receptor. In kind it is functional.

The subject of assay [2] is Rattus norvegicus. Nature of the assay: Compound was evaluated in vivo for inhibition of the AII pressor response in normotensive rat at dose 0.3 mg/kg, iv after 6 hours. In kind it is functional.
Assay [3] addresses Angiotensin II receptor (Rattus norvegicus) (UniProt P29089+P25095+P35351). Nature of the assay: Duration of action as time for pressor response to fall below 30% for a single bolus by intravenous dose. The assay is classed as functional, organism-based.
The subject of assay [4] is Rattus norvegicus. Kind of assay: Compound was evaluated in vivo for inhibition of the AII pressor response in normotensive rat at dose 0.3 mg/kg, po. The assay is classed as functional.
Assay [5] deals with T2, Type-1 angiotensin II receptor (Oryctolagus cuniculus, UniProt P34976).
T2 sequence (P34976 whole entry): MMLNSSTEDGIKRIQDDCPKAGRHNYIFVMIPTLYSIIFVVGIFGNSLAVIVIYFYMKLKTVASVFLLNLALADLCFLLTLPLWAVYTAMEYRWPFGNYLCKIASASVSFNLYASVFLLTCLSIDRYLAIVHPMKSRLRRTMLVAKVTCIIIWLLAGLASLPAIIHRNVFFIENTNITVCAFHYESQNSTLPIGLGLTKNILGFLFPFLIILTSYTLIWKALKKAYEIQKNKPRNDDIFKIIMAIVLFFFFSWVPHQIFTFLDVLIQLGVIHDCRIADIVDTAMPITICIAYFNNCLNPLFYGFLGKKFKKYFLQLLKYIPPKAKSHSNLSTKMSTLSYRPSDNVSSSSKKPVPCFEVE
Kind of assay: Displacement of [125I]Sar1-Ile8-AII (without BSA) from type 1 Angiotensin II receptor of rabbit aorta. The assay is classed as tissue-based.

The target of assay [6] is T2, Type-1 angiotensin II receptor. Nature of the assay: Ability to displace [125I]Sar1-Ile8-AII from angiotensin II receptor, type 1 in rabbit aorta in presence of 0.2% bovine serum albumin (BSA) was determined in vitro. The assay is classed as tissue-based.
The subject of assay [7] is Rattus norvegicus. Nature of the assay: The duration of action is expressed as the time for the % inhibition of pressor response to fall below 30% for a single bolus of the drug administered perorally. In kind it is functional.
For assay [8], the system named is Rattus norvegicus. Kind of assay: Compound was evaluated in vivo for inhibition of the AII pressor response in normotensive rat at dose 0.3 mg/kg, iv after 3.5 hr. The assay is classed as functional.
Assay [9] relates to Rattus norvegicus. Kind of assay: Compound was evaluated in vivo for inhibition of the AII pressor response in normotensive rat at dose 1 mg/kg, iv after 0.1 hour. In kind it is functional.
The subject of assay [10] is Rattus norvegicus. Kind of assay: In vivo for inhibition of the AII pressor response in normotensive rat at dose 0.3 mg/kg(iv) after 0.8 hour. The assay is classed as functional.
In assay [11] the test system is Rattus norvegicus. Nature of the assay: Compound was evaluated in vivo for inhibition of the AII pressor response in normotensive rat at dose 1 mg/kg, iv after 0.2 hour. The assay is classed as functional.
Assay [12] has as its system Rattus norvegicus. Kind of assay: The duration of action is expressed as the time for the % inhibition of pressor response to fall below 30% for a single bolus of the drug administered intravenously. The assay is classed as functional.
In assay [13] the test system is Rattus norvegicus. Kind of assay: Compound was evaluated in vivo for inhibition of the AII pressor response in normotensive rat at dose 3 mg/kg, p.o. after 1.1 hour. In kind it is functional. The conditions noted are these: route oral.
Assay [14] deals with Rattus norvegicus. Kind of assay: Compound was evaluated in vivo for inhibition of the AII pressor response in normotensive rat at dose 10 mg/kg, iv after 2.2 hour. The assay is classed as functional.
For assay [15], the system named is Rattus norvegicus. Nature of the assay: Compound was evaluated in vivo for inhibition of the AII pressor response in normotensive rat at dose 1 mg/kg, iv after 0.3 hour. In kind it is functional.
Assay [16] deals with Rattus norvegicus. Nature of the assay: Compound was evaluated in vivo for inhibition of the AII pressor response in normotensive rat at dose 3 mg/kg, iv after 0.9 hour. In kind it is functional.
Assay [17] deals with Rattus norvegicus. Kind of assay: Compound was evaluated in vivo for inhibition of the AII pressor response in normotensive rat at dose 1 mg/kg, iv after 0.9 hour. The assay is classed as functional.

Data on 6 compounds can be found in ChEMBL document CHEMBL1127007, “Quinazolinones 2: QSAR and in vivo characterization of AT1 selective AII antagonists” (Bioorg Med Chem Lett, 1993).

`CCCCc1nc2ccc(NC(=O)NC(C)C)cc2c(=O)n1Cc1ccc(-c2ccccc2-c2nn[nH]n2)cc1` had an Activity in [1] greater than 1000 nM. For the same compound, the inhibition in vivo at 0.3 mg/kg in the assay on Rattus norvegicus [2] turned out to be 86%; with Rattus norvegicus [4], 0%; with Rattus norvegicus [8], 86%. For the same compound, the Duration is greater than 6 h in [3] and 0 h in the assay on Rattus norvegicus [7]. The figures for the 50% inhibitory concentration (IC50) in assay [5] and in assay [6] were 0.5 nM and 0.75 nM, respectively.
As for `CCCCc1nc2ccc(SC)cc2c(=O)n1Cc1ccc(-c2ccccc2-c2nn[nH]n2)cc1`, the Activity in assay [1] is greater than 1000 nM. For the same compound, the Duration in [3] amounted to 0.1 h. Also, the inhibition in vivo at 1 mg/kg with Rattus norvegicus [9] was 44%. Besides, in assay [6], the half-maximal inhibitory concentration (IC50) worked out at 7 nM.
For `CCCCc1nc2ccc(N(C)C(=O)N(C)C(C)C)cc2c(=O)n1Cc1ccc(-c2ccccc2-c2nn[nH]n2)cc1`, the Activity in assay [1] was greater than 1000 nM. This compound yielded a Duration in [3] of 0.8 h. For the same compound, testing at 0.3 mg/kg in the assay with Rattus norvegicus [10] gave an inhibition in vivo of 70%.
In [1], `CCCCc1nc2ccc(OC)cc2c(=O)n1Cc1ccc(-c2ccccc2-c2nn[nH]n2)cc1` returned an Activity greater than 1000 nM. The inhibition in vivo at 1 mg/kg in the assay with Rattus norvegicus [11] came to 49%. For the same compound, the Duration with Rattus norvegicus [12] is 0.2 h.
Regarding `CCCCc1nc2ccccc2c(=O)n1Cc1ccc(-c2ccccc2-c2nn[nH]n2)cc1`, the Activity in assay [1] was greater than 1000 nM. For the same compound, the inhibition in vivo at 3 mg/kg is 54% in the assay with Rattus norvegicus [13] and 70% with Rattus norvegicus [16]. The same compound registered an inhibition in vivo at 10 mg/kg with Rattus norvegicus [14] of 98%. The same compound came in with an inhibition in vivo at 1 mg/kg with Rattus norvegicus [15] of 40%. The concentration for half-maximal inhibition (IC50) in [6] came out at 6 nM. Further, the Duration in the assay with Rattus norvegicus [7] was 1.1 h.
In the assay on Rattus norvegicus [17], `CCCCc1nc2ccc(NC(C)=O)cc2c(=O)n1Cc1ccc(-c2ccccc2-c2nn[nH]n2)cc1` came in with an inhibition in vivo at 1 mg/kg of 97%. For the same compound, the Activity in assay [1] was greater than 1000 nM. In assay [3], the Duration was found to be 0.9 h.

One may read the inhibition in vivo as the share of the control response that was lost under treatment. High values mean strong suppression, low ones little suppression. As a reminder, the IC50 is the concentration needed to halve the response being measured.
